Common to all, as to type: binding
The target in assay [1] is T1, integrin αvβ3 (Homo sapiens, UniProt P05106+P06756). As to conditions: for IC50: IC50 (competitive displacement), day 7, competitor [^125I]I-echistatin.
Assay [2] deals with T1, integrin αvβ3.
For assay [3], the target named is T1, integrin αvβ3. The source holds these as a separate data set.

Read-outs that look alike come from different tables or passages of the source.

Turning to `N=C(N)NCCC[C@@H]1NC(=O)[C@H](CCCCNC(=O)CCOCCOCCOCCOCCOCCOCCNC(=O)CC[C@H](C(=O)O)N2CCN(CC(=O)O)CCN(CC(=O)O)CC2)NC(=O)[C@@H](Cc2ccccc2)NC(=O)[C@H](CC(=O)O)NC(=O)CNC1=O` [NODAGA-PEG5-c(RGDfK), NODAGA-PEG5-c(Arg-Gly-Asp-D-Phe-Lys)], the IC50 on integrin αvβ3 [1] (U87MG spheroids generated with collagen-1 supplementation) was determined as 20.5 ± 4.41 µM; on integrin αvβ3 [1] (U87MG spheroids generated without supplementation), 16.5 ± 2.88 µM; against integrin αvβ3 [2], 3.08 ± 0.12 µM; on integrin αvβ3 [3] it was 10.4 ± 0.89 µM. Besides, the “reduced interaction in 3D spheroids compared to 2D monolayer (fold)” value on integrin αvβ3 [1] (IC50 in 3D U87MG spheroids vs 2D monolayer cell system) is reported as 5–7 fold. The “change of IC50 value by BME” value on integrin αvβ3 [3] (2D monolayer with BME vs without BME supplementation) was “triplication”.

The record behind these values is publication PMC11696429 (ACS Omega, 2024).
